Measurements as given in patent US4785005A, “6-(6-alkylpyridone)-carbostyril compounds and their cardiotonic uses” (Rorer Pharmaceutical Corporation, priority 1986, dated 1988).

Tests used:
[1] = system: Peak III cAMP phosphodiesterase; test: Inhibition of Peak III cAMP phosphodiesterase activity; type: biochemical, dog; conditions: fold more potent than milrinone
From the text: The following in vitro method is another means for measuring the inotropic potency of the present compounds. This method is a modification of the enzyme inhibition method reported by Thompson, W. J. and Appleman, M. M., "Characterization of Cyclic Nucleotide Phosphodiesterase of Rat Tissue," J. Biological Chemistry, Vol. 246, pp. 3145-3150 (1971); and Thompson, W. J., Brooker, G. and Appleman, M. M., "Assay of Cyclic Nucleotide Phosphodiesterase with Radioactive Substrates," Methods in Enzymology, Vol. 38, pp. 205-212 (1974); and is believed to correlate to in vivo intropic activity in humans.
The test compounds are included in media comprising a radioactively labeled substrate (^3 H-cyclic nucleotide) such as adenosine 3':5'-monophosphate (cyclic AMP) and guanosine-3':5'-monophosphate(cyclic GMP), and a non-rate-limiting amount of 5'-nucleotidease isolated from a dog heart. The inhibition of the enzyme hydrolysis of the 5'-nucleotide product of the cNUC-PDEase to the corresponding nucleoside is measured by separating the charged, unhydrolyzed substrate from the uncharged hydrolysis product. Separation may be acheived either chromatographically from the uncharged nucleoside product of the assay with ion-exchange resin or preferentially quenched with the ion-exchange resin so that it is not quantitated with the liquid scintillation counter.

[2] = system: anesthetized dog (myocardial contractile force, heart rate, arterial pressure, aortic flow); test: Ganglionic-beta blocked anesthetized dog procedure; type: in vivo; conditions: for ED50: Canis lupus familiaris, iv, read-out: inotropic ED50
Method: Adult mongrel dogs of either sex weighing 10 to 16 kg are fasted overnight, anesthetized with pentobarbital sodium 35 mg/kg, i.v. intubated, respired with room air using a Harvard respirator, and instrumented surgically to monitor myocardial contractile force, heart rate, arterial pressure, aortic flow and EKG limb lead II. The aforesaid measurements are recorded continously on a strip chart recorder.
Myocardial contractile force is monitored by a a Walton-Brodie strain gauge sutured to the left ventricular myocardium parallel to the left anterior descending coronary artery. Arterial pressure is measured using a fluid-filled catheter attached to a pressure transducer introduced via the right femoral artery and positioned in the thoracic aorta. Mean arterial pressure is determined by electronically clamping the pulsatile pressure signal. Aortic flow is monitored using a precalibrated, noncannulating electromagnetic flow probe positioned around the thoracic aorta. Heart rate is monitored using a cardiotachometer triggered by the QRS complex of the limb lead II EKG. The right femoral vein is cannulated for intravenous infusion of drugs. Body temperature is maintained at 37±1° C.
Following a 30 min postsurgical stabilization period, control values are recorded. Myocardial depression is induced by ganglionic and beta receptor blockade. Initially, the responsiveness of the autonomic nervous system is assessed by performing a 30 sec bilateral carotid occlusion (BCO). Ten minutes later, a saline solution of isoproterenol 0.3 mcg/kg i.v. is administered to assess beta receptor integrity. Ten minutes after that, a saline solution of mecamylamine 2 mg/kg i.v. is infused, followed by a saline solution of propranolol 1 mg/kg i.v. plus 0.3 mg/kg/hr. […] Ten minutes later, the test compound or vehicle is administered intravenously in ascending doses at 30 min intervals at […] in a total volume of 3.5 ml. On completion of the experiment, both BCO and isoproterenol challenges are repeated to verify ganglionic and beta blockade.
Solutions of the most preferred compound of the present invention, 6-[3'-cyano-6'-methyl-2'-oxo(1H)pyridin-5'-yl]-3,4-dihydrocarbostyril, and milrinone, 3-cyano-6-methyl-5-(4-pyridyl)-pyridin-2-one, were administered intravenously in accordance with the procedure described above. The solutions were prepared by dissolution in PEG 200 followed by serial saline dilution to yield test doses. Test solutions of 6-[3'-cyano-6'-methyl-2'-oxo(1H)pyridin-5'-yl]-3,4-dihydrocarbostyril were prepared at doses of 3, 10 and 30 mcg (expressed as base) per kg, and solutions of milrinone were prepared at test doses of 30, 100 and 300 mcg/kg.

[3] = 30 mcg/kg i.v., ganglionic-beta blocked anesthetized dog
[4] = ganglionic-beta blocked anesthetized dog
[5] = 100 mcg/kg i.v., ganglionic-beta blocked anesthetized dog

potency in Peak III phosphodiesterase inhibition relative to milrinone [1] | Compound | increase in contractile force (maximum) [2, 3] | increase in heart rate [2, 3] | ED50 [2, 4] | arterial blood pressure ([2]; i.v., at the doses tested (3, 10 and 30 mcg/kg)) | increase in aortic blood flow (maximum) ([2]; i.v., doses of 3, 10 and 30 mcg/kg tested) | increase in contractile force [2, 5] | increase in heart rate [2, 5] | maximum decrease of mean arterial pressure ([2]; i.v., dose-related, sustained, doses of 30, 100 and 300 mcg/kg tested) | increase in aortic blood flow (in words) ([2]; i.v., doses of 30, 100 and 300 mcg/kg tested)
about twelve | Cc1[nH]c(=O)c(C#N)cc1-c1ccc2c(c1)CCC(=O)N2 [6-[3'-Cyano-6'-methyl-2'-oxo(1H)pyridin-5'-yl]-3,4-dihydrocarbostyril] | 97% | 17% | 0.016 mg/kg | not altered | 51% |  |  |  | 
 | Cc1[nH]c(=O)c(C#N)cc1-c1ccncc1 [milrinone, 3-cyano-6-methyl-5-(4-pyridyl)-pyridin-2-one, reference compound] |  |  | 0.05 mg/kg |  |  | 111% | 19% | 32% | only transiently at low dose
